These results are taken from US9546172B2, “Pyrazolo[3,4-d]pyrimidine and pyrazolo[2,3-d]pyrimidine compounds as kinase inhibitors” (Pharmacyclics LLC, priority 2011, dated 2017).

Common to all, as to format: biochemical
The target of one assay is CSK (Homo sapiens, UniProt P41240). Put plainly: CSK kinase inhibition.
The next assay has as its target T1, Tec (Homo sapiens, UniProt P42680).
T1 sequence (P42680 1-631): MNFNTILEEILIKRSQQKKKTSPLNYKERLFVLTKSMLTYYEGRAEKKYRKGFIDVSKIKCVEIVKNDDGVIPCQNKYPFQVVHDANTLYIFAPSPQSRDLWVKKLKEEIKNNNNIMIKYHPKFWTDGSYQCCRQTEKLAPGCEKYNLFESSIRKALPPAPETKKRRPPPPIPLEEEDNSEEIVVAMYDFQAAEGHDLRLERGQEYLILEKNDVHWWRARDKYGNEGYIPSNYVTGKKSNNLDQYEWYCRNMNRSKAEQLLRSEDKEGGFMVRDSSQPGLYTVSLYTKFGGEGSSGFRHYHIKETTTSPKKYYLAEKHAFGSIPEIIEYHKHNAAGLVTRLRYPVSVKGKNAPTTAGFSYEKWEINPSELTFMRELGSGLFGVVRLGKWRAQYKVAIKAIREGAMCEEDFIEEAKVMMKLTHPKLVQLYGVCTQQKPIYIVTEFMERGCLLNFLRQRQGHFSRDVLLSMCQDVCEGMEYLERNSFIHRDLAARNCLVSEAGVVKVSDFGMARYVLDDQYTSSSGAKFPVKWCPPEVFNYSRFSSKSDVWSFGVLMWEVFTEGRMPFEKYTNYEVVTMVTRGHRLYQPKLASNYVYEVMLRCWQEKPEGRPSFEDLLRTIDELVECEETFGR
Put plainly: Tec kinase inhibition. As to the method:
(§1) Btk kinase activity was determined using a time-resolved fluorescence resonance energy transfer (TR-FRET) methodology. Measurements were performed in a reaction volume of 50 μL using 96-well assay plates. […] The reaction was quenched by the addition of 1.2 equivalents of EDTA (relative to divalent cation) in 25 μL of 1× Lance buffer (Perkin-Elmer). Streptavidin-APC (Perkin-Elmer) and Eu-labeled p-Tyr100 antibody (Perkin-Elmer) in 1× Lance buffer were added in a 25 μL volume to give final concentrations of 100 nM and 2.5 nM, respectively, and the mixture was allowed to incubate for one hour. The TR-FRET signal was measured on a multimode plate reader with an excitation wavelength (λEx) of 330 nm and detection wavelengths (λEm) of 615 and 665 nm. Activity was determined by the ratio of the fluorescence at 665 nm to that at 615 nm. For each compound, enzyme activity was measured at various concentrations of compound. Negative control reactions were performed in the absence of inhibitor in replicates of six, and two no-enzyme controls were used to determine baseline fluorescence levels Inhibition constants, Ki(app), were obtained using the program BatchKi (Kuzmic et al. (2000), Anal. Biochem. 286:45-50). IC50s were obtained according to the equation: IC50={Ki(app)/(1+[ATP]/Km^ATP)}+[E]total/2; For all kinases, [ATP]=Km^ATP, [Btk]total=0.5 nM and [Lck]total=6 nM.

The next assay has as its target T2, BMX (Homo sapiens, UniProt P51813).
T2 sequence (P51813 1-675): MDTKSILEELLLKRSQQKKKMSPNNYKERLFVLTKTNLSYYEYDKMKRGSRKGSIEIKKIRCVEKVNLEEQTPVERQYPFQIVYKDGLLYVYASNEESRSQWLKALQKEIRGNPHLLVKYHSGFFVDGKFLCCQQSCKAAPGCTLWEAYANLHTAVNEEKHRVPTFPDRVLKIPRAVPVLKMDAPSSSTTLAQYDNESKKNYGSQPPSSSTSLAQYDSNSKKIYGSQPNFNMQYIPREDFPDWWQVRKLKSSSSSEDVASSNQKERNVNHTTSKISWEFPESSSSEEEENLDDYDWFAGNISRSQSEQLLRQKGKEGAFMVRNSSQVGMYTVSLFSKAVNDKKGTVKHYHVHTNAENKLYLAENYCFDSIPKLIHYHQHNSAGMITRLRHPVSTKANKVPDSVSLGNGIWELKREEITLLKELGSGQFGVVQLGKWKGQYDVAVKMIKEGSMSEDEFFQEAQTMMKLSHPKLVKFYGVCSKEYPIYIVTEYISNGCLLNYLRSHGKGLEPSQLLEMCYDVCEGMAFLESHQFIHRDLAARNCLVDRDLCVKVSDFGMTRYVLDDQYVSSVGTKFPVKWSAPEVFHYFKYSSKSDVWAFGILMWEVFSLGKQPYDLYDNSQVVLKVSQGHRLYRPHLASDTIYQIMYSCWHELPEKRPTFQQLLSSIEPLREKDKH
In words: BMX kinase inhibition.

The target of another assay is EGFR (Homo sapiens, UniProt P00533). Put plainly: EGFR kinase inhibition.
The next assay concerns the target RET (Homo sapiens, UniProt P07949). Put plainly: RET kinase inhibition.
A further assay concerns the target C-src (Homo sapiens, UniProt P12931). In words: C-src kinase inhibition. As to the method: as §1
The target in the next assay is Lyn (Homo sapiens, UniProt P07948). Put plainly: Lyn kinase inhibition.
Another assay concerns the target Lck (Homo sapiens, UniProt P06239). Put plainly: Lck kinase inhibition. The procedure:
as §1

A further assay has as its target BLK (Homo sapiens, UniProt P51451). In words: BLK kinase inhibition. The procedure: as §1
The target of another assay is T3, Btk (Homo sapiens, UniProt Q06187).
T3 construct: purified from insect cells as a full-length construct containing a N-terminal 6×-His tag; 6xHis (N); host or cells: insect cells (baculovirus Sf21 in Method B)
In words: Btk in vitro inhibitory activity (one of Methods A, B, C). The settings on record: determined in one of three in vitro assays (Examples 125-127). Summed up:
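Values come from one of three formats: TR-FRET (665/615 nm ratio; Ki(app) converted to IC50 with [ATP]=Km, 0.5 nM Btk), mobility-shift product/sum ratio over 12 concentrations with 4-parameter fit, or radiometric filter binding using His-tagged full-length human Btk (8 nM), 0.2 mg/mL poly-Glu-Tyr, 1 μM ATP, 120 min RT.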

BLK, sequence (P51451 whole entry): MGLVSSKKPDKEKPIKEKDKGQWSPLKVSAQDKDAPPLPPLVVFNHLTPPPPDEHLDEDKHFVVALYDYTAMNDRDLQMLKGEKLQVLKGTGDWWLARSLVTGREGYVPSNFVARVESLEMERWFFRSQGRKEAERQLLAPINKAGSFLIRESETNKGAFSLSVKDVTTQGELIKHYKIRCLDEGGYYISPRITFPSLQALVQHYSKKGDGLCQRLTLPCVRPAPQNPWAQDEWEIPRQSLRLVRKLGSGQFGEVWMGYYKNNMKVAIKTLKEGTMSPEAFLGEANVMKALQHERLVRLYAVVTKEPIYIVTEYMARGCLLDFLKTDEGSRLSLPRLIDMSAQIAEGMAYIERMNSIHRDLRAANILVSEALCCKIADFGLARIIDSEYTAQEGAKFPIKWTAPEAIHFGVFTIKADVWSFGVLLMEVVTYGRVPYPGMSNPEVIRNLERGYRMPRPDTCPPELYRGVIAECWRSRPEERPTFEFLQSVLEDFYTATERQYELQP
Lyn, sequence (P07948 whole entry): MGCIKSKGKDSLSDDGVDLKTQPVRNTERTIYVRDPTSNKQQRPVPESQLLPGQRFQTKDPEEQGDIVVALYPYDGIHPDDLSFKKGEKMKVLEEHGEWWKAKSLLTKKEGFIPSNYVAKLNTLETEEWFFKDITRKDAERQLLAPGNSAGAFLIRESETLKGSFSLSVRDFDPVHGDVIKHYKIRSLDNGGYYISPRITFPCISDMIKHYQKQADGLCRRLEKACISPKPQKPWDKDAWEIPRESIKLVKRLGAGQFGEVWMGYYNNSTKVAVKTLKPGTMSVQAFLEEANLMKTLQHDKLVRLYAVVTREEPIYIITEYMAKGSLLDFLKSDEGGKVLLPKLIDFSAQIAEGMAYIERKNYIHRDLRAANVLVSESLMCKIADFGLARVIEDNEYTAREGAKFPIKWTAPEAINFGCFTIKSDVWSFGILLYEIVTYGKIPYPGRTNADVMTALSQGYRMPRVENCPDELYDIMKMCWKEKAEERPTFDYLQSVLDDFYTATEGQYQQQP
RET, sequence (P07949 29-1114): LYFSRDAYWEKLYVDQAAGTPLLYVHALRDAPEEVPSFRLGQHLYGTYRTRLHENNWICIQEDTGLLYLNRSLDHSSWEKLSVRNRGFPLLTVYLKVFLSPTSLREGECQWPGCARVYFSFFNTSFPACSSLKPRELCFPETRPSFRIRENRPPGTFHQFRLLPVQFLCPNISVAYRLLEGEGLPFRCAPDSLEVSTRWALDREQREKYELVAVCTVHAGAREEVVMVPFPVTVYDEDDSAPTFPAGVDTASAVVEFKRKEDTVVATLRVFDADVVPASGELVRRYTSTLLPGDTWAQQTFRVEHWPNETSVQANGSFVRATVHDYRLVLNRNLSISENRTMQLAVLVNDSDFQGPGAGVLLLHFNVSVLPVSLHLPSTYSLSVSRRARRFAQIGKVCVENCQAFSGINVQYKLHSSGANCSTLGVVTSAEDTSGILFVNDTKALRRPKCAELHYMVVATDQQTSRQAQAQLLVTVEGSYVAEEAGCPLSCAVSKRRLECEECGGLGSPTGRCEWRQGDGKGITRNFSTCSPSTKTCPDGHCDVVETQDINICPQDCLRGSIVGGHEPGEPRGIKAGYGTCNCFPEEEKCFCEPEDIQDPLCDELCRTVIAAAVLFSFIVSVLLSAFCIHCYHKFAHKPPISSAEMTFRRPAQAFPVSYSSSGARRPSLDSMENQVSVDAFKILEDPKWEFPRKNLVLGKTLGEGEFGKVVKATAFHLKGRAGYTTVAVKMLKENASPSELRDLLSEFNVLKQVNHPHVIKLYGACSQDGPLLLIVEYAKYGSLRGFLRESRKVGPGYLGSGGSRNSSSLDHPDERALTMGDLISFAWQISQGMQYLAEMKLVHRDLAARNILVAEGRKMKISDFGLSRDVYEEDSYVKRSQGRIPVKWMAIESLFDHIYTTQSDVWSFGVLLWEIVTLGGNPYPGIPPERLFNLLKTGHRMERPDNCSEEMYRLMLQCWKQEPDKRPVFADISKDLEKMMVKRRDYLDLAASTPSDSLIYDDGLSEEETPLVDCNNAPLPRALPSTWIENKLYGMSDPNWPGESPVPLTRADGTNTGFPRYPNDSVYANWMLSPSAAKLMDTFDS
C-src, sequence (P12931 whole entry): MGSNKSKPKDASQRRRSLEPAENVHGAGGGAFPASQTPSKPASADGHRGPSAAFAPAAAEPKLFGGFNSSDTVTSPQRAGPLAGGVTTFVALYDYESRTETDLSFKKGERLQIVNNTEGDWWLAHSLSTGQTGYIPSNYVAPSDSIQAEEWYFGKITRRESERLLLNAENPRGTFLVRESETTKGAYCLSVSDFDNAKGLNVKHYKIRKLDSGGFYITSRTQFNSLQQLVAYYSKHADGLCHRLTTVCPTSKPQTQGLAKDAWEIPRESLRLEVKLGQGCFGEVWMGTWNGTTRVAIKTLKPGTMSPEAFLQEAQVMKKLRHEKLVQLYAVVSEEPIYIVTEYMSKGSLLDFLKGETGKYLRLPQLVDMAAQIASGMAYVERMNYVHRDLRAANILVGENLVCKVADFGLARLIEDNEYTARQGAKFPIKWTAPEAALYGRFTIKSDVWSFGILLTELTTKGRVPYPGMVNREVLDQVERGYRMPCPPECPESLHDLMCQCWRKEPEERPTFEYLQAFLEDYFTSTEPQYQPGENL
CSK, sequence (P41240 whole entry): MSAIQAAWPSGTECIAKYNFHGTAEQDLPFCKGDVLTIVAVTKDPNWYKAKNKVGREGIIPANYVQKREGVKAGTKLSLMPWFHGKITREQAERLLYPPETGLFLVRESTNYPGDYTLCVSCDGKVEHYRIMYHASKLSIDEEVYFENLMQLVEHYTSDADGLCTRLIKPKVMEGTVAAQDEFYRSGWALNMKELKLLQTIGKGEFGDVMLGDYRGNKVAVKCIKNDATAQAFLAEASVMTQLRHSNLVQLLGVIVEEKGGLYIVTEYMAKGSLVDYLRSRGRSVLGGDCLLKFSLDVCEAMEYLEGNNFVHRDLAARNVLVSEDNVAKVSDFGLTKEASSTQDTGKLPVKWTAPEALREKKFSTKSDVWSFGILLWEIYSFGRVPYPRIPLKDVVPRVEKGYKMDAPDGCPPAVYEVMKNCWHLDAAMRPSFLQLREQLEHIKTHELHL
Lck, sequence (P06239 whole entry): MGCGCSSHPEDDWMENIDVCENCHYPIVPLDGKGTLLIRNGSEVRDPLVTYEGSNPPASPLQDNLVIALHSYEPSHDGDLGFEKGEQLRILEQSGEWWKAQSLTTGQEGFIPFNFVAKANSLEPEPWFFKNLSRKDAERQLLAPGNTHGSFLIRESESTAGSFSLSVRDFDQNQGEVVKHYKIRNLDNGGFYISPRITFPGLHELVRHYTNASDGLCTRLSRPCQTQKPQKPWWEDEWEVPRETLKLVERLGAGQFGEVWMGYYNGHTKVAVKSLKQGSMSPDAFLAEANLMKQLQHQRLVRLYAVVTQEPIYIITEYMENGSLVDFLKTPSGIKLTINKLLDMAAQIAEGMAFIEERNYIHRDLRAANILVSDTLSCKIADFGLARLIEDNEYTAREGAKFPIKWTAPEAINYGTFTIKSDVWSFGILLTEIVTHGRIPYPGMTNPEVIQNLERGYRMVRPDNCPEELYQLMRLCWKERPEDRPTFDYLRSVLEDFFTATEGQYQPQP
T3 sequence (Q06187 whole entry): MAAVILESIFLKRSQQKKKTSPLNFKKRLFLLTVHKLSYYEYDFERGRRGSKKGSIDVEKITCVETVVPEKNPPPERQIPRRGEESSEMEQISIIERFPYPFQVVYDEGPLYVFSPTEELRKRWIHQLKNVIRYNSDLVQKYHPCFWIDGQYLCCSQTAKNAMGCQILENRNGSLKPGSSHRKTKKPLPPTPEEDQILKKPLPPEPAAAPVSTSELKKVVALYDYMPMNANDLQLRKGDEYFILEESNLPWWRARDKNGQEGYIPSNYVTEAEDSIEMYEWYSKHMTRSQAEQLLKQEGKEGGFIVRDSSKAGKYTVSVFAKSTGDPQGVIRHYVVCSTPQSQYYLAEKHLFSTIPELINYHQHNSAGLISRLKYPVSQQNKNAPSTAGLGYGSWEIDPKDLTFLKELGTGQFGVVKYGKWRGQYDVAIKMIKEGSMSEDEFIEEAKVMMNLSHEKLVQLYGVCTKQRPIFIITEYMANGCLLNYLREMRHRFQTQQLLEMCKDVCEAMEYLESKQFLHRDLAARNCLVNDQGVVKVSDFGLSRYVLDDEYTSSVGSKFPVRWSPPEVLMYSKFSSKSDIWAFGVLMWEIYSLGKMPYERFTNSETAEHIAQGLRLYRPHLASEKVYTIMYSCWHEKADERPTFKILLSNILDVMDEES

Broadly, the IC50 is the concentration at which inhibition is half-maximal. With `COc1ccc(-c2nn([C@@H]3CCN(C(=O)/C=C/CN(C)C)C3)c3ncnc(N)c23)cc1` [Example 5, (R,E)-1-(3-(4-amino-3-(4-methoxyphenyl)-1H-pyrazolo[3,4-d]pyrimidin-1-yl)pyrrolidin-1-yl)-4-(dimethylamino)but-2-en-1-one], the IC50 against CSK was above 1000 nM; against Tec, below 100 nM; on BMX, below 100 nM; against EGFR, above 1000 nM; at RET, 100 to 1000 nM; on C-src, 100 to 1000 nM. Moreover, the concentration for half-maximal inhibition (IC50) against Lyn was 100 to 1000 nM; at Lck it was 100 to 1000 nM; against BLK it was below 100 nM; at Btk, below 100 nM.
Turning to `COc1cccc(-c2nn([C@@H]3CCN(C(=O)/C=C/CN(C)C)C3)c3ncnc(N)c23)c1` [Example 6, (R,E)-1-(3-(4-amino-3-(3-methoxyphenyl)-1H-pyrazolo[3,4-d]pyrimidin-1-yl)pyrrolidin-1-yl)-4-(dimethylamino)but-2-en-1-one], the IC50 against CSK is above 1000 nM; against Tec it was below 100 nM; against BMX, below 100 nM; against EGFR, 100 to 1000 nM; on RET, 100 to 1000 nM; against C-src it was below 100 nM. In addition, the IC50 is 100 to 1000 nM against Lyn, 100 to 1000 nM on Lck, below 100 nM on BLK and below 100 nM on Btk.
On to `CN(C)C/C=C/C(=O)N1CC[C@@H](n2nc(-c3ccc(Cl)cc3F)c3c(N)ncnc32)C1` [Example 7, (R,E)-1-(3-(4-amino-3-(4-chloro-2-fluorophenyl)-1H-pyrazolo[3,4-d]pyrimidin-1-yl)pyrrolidin-1-yl)-4-(dimethylamino)but-2-en-1-one], for which the 50% inhibitory concentration (IC50) on CSK is 100 to 1000 nM; at Tec, below 100 nM; on BMX, below 100 nM; at EGFR it was 100 to 1000 nM; against RET, 100 to 1000 nM; against C-src, below 100 nM. The IC50 is 100 to 1000 nM on Lyn, 100 to 1000 nM at Lck, 100 to 1000 nM on BLK and below 100 nM against Btk.
Turning to `COc1cc(-c2nn([C@@H]3CCN(C(=O)/C=C/CN(C)C)C3)c3ncnc(N)c23)ccc1F` [Example 8, (R,E)-1-(3-(4-amino-3-(4-fluoro-3-methoxyphenyl)-1H-pyrazolo[3,4-d]pyrimidin-1-yl)pyrrolidin-1-yl)-4-(dimethylamino)but-2-en-1-one], the concentration for half-maximal inhibition (IC50) on CSK is above 1000 nM; on Tec it was below 100 nM; on BMX, below 100 nM; against EGFR, 100 to 1000 nM; against RET, above 1000 nM; at C-src, 100 to 1000 nM. For the same molecule, the IC50 against Lyn is above 1000 nM; against Lck, 100 to 1000 nM; against BLK, 100 to 1000 nM; against Btk, below 100 nM.
Regarding `COc1cc(-c2nn([C@@H]3CCN(C(=O)/C=C/CN(C)C)C3)c3ncnc(N)c23)ccc1C` [Example 9, (R,E)-1-(3-(4-amino-3-(3-methoxy-4-methylphenyl)-1H-pyrazolo[3,4-d]pyrimidin-1-yl)pyrrolidin-1-yl)-4-(dimethylamino)but-2-en-1-one], the half-maximal inhibitory concentration (IC50) on CSK is 100 to 1000 nM; against Tec it was below 100 nM; at BMX, below 100 nM; against EGFR, below 100 nM; at RET it was above 1000 nM; at C-src, below 100 nM. The half-inhibitory concentration (IC50) on Lyn is 100 to 1000 nM; on Lck, below 100 nM; at BLK it was below 100 nM; at Btk, below 100 nM.
For the molecule `CN(C/C=C/C(=O)N1CC[C@@H](n2nc(-c3ccc(Cl)cc3)c3c(N)ncnc32)C1)C1CCC1` [Example 10, (R,E)-1-(3-(4-amino-3-(4-chlorophenyl)-1H-pyrazolo[3,4-d]pyrimidin-1-yl)pyrrolidin-1-yl)-4-(cyclobutyl(methyl)amino)but-2-en-1-one], the IC50 at CSK is above 1000 nM; against Tec it was below 100 nM; against BMX, below 100 nM; against EGFR it was 100 to 1000 nM; against RET, 100 to 1000 nM; against C-src it was above 1000 nM. Also, the half-inhibitory concentration (IC50) was above 1000 nM against Lyn, 100 to 1000 nM on Lck, 100 to 1000 nM at BLK and below 100 nM at Btk.
